What was measured:
Type in all cases: in vivo
[1] = test system: sedge, umbrella (small-flower umbrella sedge, Cyperus difformis); test: Test C flooded paddy test: sedge, umbrella; conditions: scale 0 to 100 (0 no effect, 100 complete control)
How it was run: (§1)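 Plants were grown to the 2-leaf stage, pots flooded to 3 cm above soil, and test compounds applied directly to the paddy water, with that depth held throughout. After 13 to 15 days in a greenhouse, injury was visually rated against controls on a 0 (no effect) to 100 (complete control) scale.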

[2] = test system: pigweed (Amaranthus retroflexus); test: Test A pre-/postemergence: pigweed
How it was run: (§2)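 Injury was scored visually on a 0 (no effect) to 100 (complete control) scale versus untreated controls roughly ten days after treatment in the greenhouse. Compounds, formulated in surfactant-containing non-phytotoxic solvent, went on as soil-directed preemergence spray or postemergence to one- to two-leaf plants 2–10 cm tall.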

[3] = test system: barnyardgrass (Echinochloa crus-galli); test: Test A pre-/postemergence: barnyardgrass
How it was run: as §2

[4] = test system: wheat (Triticum aestivum); test: Test A pre-/postemergence: wheat
How it was run: as §2

[5] = test system: crabgrass, large (large crabgrass, Digitaria sanguinalis); test: Test A pre-/postemergence: crabgrass, large
How it was run: as §2

[6] = test system: foxtail, giant (giant foxtail, Setaria faberii); test: Test A pre-/postemergence: foxtail, giant
How it was run: as §2

[7] = test system: velvetleaf (Abutilon theophrasti); test: Test A pre-/postemergence: velvetleaf
How it was run: as §2

[8] = test system: morningglory (Ipomoea spp.); test: Test A pre-/postemergence: morningglory
How it was run: as §2

[9] = test system: ducksalad (Heteranthera limosa); test: Test C flooded paddy test: ducksalad; conditions: scale 0 to 100 (0 no effect, 100 complete control)
How it was run: as §1

[10] = test system: barnyardgrass (Echinochloa crus-galli); test: Test C flooded paddy test: barnyardgrass; conditions: scale 0 to 100 (0 no effect, 100 complete control)
How it was run: as §1

rice (Oryza sativa) = test: Test C flooded paddy test: rice; conditions: scale 0 to 100 (0 no effect, 100 complete control)
How it was run: as §1

corn (Zea mays) = test: Test A pre-/postemergence: corn
How it was run: as §2

[11] = Flood (flooded paddy test), 125 g ai/ha, visual rating after 13 to 15 days
[12] = Flood (flooded paddy test), 250 g ai/ha, visual rating after 13 to 15 days
[13] = Postemergence, 125 g ai/ha, 0 to 100 scale, 0 is no effect, 100 is complete control
[14] = Postemergence, 500 g ai/ha, visual rating on 0 to 100 scale (0 no effect, 100 complete control), approximately ten days
[15] = Preemergence, 125 g ai/ha, 0 to 100 scale where 0 is no effect and 100 is complete control
[16] = Preemergence, 500 g ai/ha, 0 to 100 scale, 0 is no effect, 100 is complete control
[17] = Postemergence, 1000 g ai/ha, visual rating on 0 to 100 scale (0 no effect, 100 complete control), approximately ten days
[18] = Preemergence, 1000 g ai/ha, 0 to 100 scale, 0 is no effect, 100 is complete control
[19] = Preemergence, 500 g ai/ha, 0 to 100 scale (0 no effect, 100 complete control)

Cc1nn(-c2ccc(C(F)(F)F)cc2)nc1Oc1cccc(C(F)(F)F)c1 [Compound 111]
35: Plant response rating, Barnyardgrass [10, 12]
80: Plant response rating, Sedge, Umbrella [1, 11] | Plant response rating, Barnyardgrass [3, 16] | Plant response rating, Crabgrass, Large [5, 15] | Foxtail, Giant plant response rating [6, 13] | Plant response rating, Ducksalad [9, 12]
30: Barnyardgrass plant response rating [3, 14] | Plant response rating, Morningglory [8, 16] | Plant response rating, Ducksalad ([9]; Flood, 62 g ai/ha) | Plant response rating, Rice (rice (Oryza sativa); [12]) | Corn plant response rating (corn (Zea mays); [14])
25: Plant response rating, Rice (rice (Oryza sativa); [11])
10: Wheat plant response rating [4, 13]
85: Plant response rating, Sedge, Umbrella [1, 12]
50: Plant response rating, Velvetleaf [7, 16]
0: Plant response rating, Wheat [4, 15] | Plant response rating, Wheat [4, 16] | Plant response rating, Velvetleaf [7, 15] | Plant response rating, Morningglory [8, 15] | Plant response rating, Ducksalad ([9]; Flood, 31 g ai/ha) | Plant response rating, Barnyardgrass ([10]; Flood, 31 g ai/ha) | Plant response rating, Barnyardgrass ([10]; Flood, 62 g ai/ha) | Plant response rating, Rice (rice (Oryza sativa); Flood, 31 g ai/ha) | Plant response rating, Rice (rice (Oryza sativa); Flood, 62 g ai/ha) | Plant response rating, Corn (corn (Zea mays); [15])
70: Plant response rating, Pigweed [2, 15] | Plant response rating, Foxtail, Giant [6, 15] | Velvetleaf plant response rating [7, 14] | Morningglory plant response rating [8, 13] | Plant response rating, Ducksalad [9, 11]
65: Plant response rating, Sedge, Umbrella ([1]; Flood, 62 g ai/ha)
100: Plant response rating, Crabgrass, Large [5, 16] | Plant response rating, Foxtail, Giant [6, 16] | Morningglory plant response rating [8, 14]
90: Pigweed plant response rating [2, 13] | Pigweed plant response rating [2, 14] | Plant response rating, Pigweed [2, 16] | Crabgrass, Large plant response rating [5, 13] | Crabgrass, Large plant response rating [5, 14] | Foxtail, Giant plant response rating [6, 14]
45: Plant response rating, Sedge, Umbrella ([1]; Flood, 31 g ai/ha)
40: Wheat plant response rating [4, 14]
20: Barnyardgrass plant response rating [3, 13] | Plant response rating, Barnyardgrass [3, 15] | Velvetleaf plant response rating [7, 13] | Plant response rating, Barnyardgrass [10, 11] | Corn plant response rating (corn (Zea mays); [13]) | Plant response rating, Corn (corn (Zea mays); [16])

Cc1nn(-c2ccc(C(F)(F)F)cc2)nc1Cn1ccc(C(F)(F)F)n1 [Compound 117]
50: Plant response rating, Ducksalad ([9]; Flood, 62 g ai/ha) | Plant response rating, Barnyardgrass ([10]; Flood, 31 g ai/ha) | Corn plant response rating (corn (Zea mays); [18])
60: Plant response rating, Barnyardgrass ([10]; Flood, 62 g ai/ha)
15: Plant response rating, Rice (rice (Oryza sativa); Flood, 31 g ai/ha) | Plant response rating, Rice (rice (Oryza sativa); Flood, 62 g ai/ha)
10: Wheat plant response rating [4, 18]
100: Pigweed plant response rating [2, 17] | Pigweed plant response rating [2, 18] | Barnyardgrass plant response rating [3, 18] | Crabgrass, Large plant response rating [5, 18] | Foxtail, Giant plant response rating [6, 18] | Velvetleaf plant response rating [7, 17]
80: Barnyardgrass plant response rating [3, 17] | Plant response rating, Ducksalad [9, 11] | Plant response rating, Barnyardgrass [10, 12]
30: Velvetleaf plant response rating [7, 18] | Plant response rating, Ducksalad ([9]; Flood, 31 g ai/ha)
65: Plant response rating, Sedge, Umbrella ([1]; Flood, 31 g ai/ha) | Plant response rating, Barnyardgrass [10, 11]
70: Plant response rating, Sedge, Umbrella ([1]; Flood, 62 g ai/ha)
25: Plant response rating, Rice (rice (Oryza sativa); [11])
40: Morningglory plant response rating [8, 18] | Plant response rating, Rice (rice (Oryza sativa); [12]) | Corn plant response rating (corn (Zea mays); [17])
75: Plant response rating, Sedge, Umbrella [1, 11]
90: Crabgrass, Large plant response rating [5, 17] | Foxtail, Giant plant response rating [6, 17] | Morningglory plant response rating [8, 17]
85: Plant response rating, Sedge, Umbrella [1, 12] | Plant response rating, Ducksalad [9, 12]
20: Wheat plant response rating [4, 17]

Cc1nn(-c2ccc(C(F)(F)F)cc2)nc1Oc1cccc(OC(F)(F)F)c1 [Compound 119]
100: Pigweed plant response rating [2, 14] | Plant response rating, Pigweed [2, 19] | Plant response rating, Crabgrass, Large [5, 19] | Plant response rating, Foxtail, Giant [6, 19]
75: Plant response rating, Sedge, Umbrella ([1]; Flood, 62 g ai/ha)
85: Plant response rating, Sedge, Umbrella [1, 11] | Plant response rating, Sedge, Umbrella [1, 12]
60: Plant response rating, Pigweed [2, 15] | Foxtail, Giant plant response rating [6, 14]
80: Plant response rating, Ducksalad [9, 11] | Plant response rating, Ducksalad [9, 12]
0: Plant response rating, Barnyardgrass [3, 15] | Wheat plant response rating [4, 13] | Plant response rating, Wheat [4, 15] | Plant response rating, Wheat [4, 19] | Plant response rating, Velvetleaf [7, 15] | Plant response rating, Morningglory [8, 15] | Plant response rating, Corn (corn (Zea mays); [15]) | Plant response rating, Corn (corn (Zea mays); [19])
50: Plant response rating, Foxtail, Giant [6, 15] | Plant response rating, Ducksalad ([9]; Flood, 62 g ai/ha)
10: Barnyardgrass plant response rating [3, 13] | Wheat plant response rating [4, 14] | Plant response rating, Velvetleaf [7, 19] | Plant response rating, Morningglory [8, 19] | Corn plant response rating (corn (Zea mays); [13])
20: Barnyardgrass plant response rating [3, 14] | Foxtail, Giant plant response rating [6, 13] | Velvetleaf plant response rating [7, 13] | Morningglory plant response rating [8, 13] | Plant response rating, Barnyardgrass ([10]; Flood, 62 g ai/ha)
15: Plant response rating, Rice (rice (Oryza sativa); Flood, 62 g ai/ha)
40: Crabgrass, Large plant response rating [5, 13] | Velvetleaf plant response rating [7, 14]
70: Pigweed plant response rating [2, 13] | Crabgrass, Large plant response rating [5, 14] | Plant response rating, Crabgrass, Large [5, 15] | Morningglory plant response rating [8, 14]
25: Plant response rating, Barnyardgrass [10, 11] | Plant response rating, Rice (rice (Oryza sativa); [11]) | Plant response rating, Rice (rice (Oryza sativa); [12])
30: Plant response rating, Barnyardgrass [3, 19] | Plant response rating, Barnyardgrass [10, 12] | Corn plant response rating (corn (Zea mays); [14])

FC(F)(F)c1ccc(-n2nc(Br)c(Cc3cccc(C(F)(F)F)c3)n2)cc1 [Compound 123]
75: Plant response rating, Sedge, Umbrella [1, 12] | Plant response rating, Ducksalad [9, 11] | Plant response rating, Ducksalad [9, 12]
100: Pigweed plant response rating [2, 17] | Velvetleaf plant response rating [7, 17] | Morningglory plant response rating [8, 17]
0: Plant response rating, Sedge, Umbrella ([1]; Flood, 31 g ai/ha) | Plant response rating, Sedge, Umbrella ([1]; Flood, 62 g ai/ha) | Wheat plant response rating [4, 18] | Morningglory plant response rating [8, 18] | Plant response rating, Ducksalad ([9]; Flood, 31 g ai/ha) | Plant response rating, Barnyardgrass [10, 11] | Plant response rating, Barnyardgrass [10, 12] | Plant response rating, Barnyardgrass ([10]; Flood, 31 g ai/ha) | Plant response rating, Barnyardgrass ([10]; Flood, 62 g ai/ha) | Plant response rating, Rice (rice (Oryza sativa); [11]) | Plant response rating, Rice (rice (Oryza sativa); Flood, 31 g ai/ha) | Plant response rating, Rice (rice (Oryza sativa); Flood, 62 g ai/ha) | Corn plant response rating (corn (Zea mays); [18])
10: Barnyardgrass plant response rating [3, 17] | Barnyardgrass plant response rating [3, 18] | Velvetleaf plant response rating [7, 18] | Plant response rating, Rice (rice (Oryza sativa); [12])
60: Crabgrass, Large plant response rating [5, 18] | Foxtail, Giant plant response rating [6, 17]
80: Pigweed plant response rating [2, 18] | Crabgrass, Large plant response rating [5, 17] | Foxtail, Giant plant response rating [6, 18]
20: Wheat plant response rating [4, 17]
50: Plant response rating, Sedge, Umbrella [1, 11]
40: Plant response rating, Ducksalad ([9]; Flood, 62 g ai/ha) | Corn plant response rating (corn (Zea mays); [17])

Cc1nn(-c2ccc(F)cc2)nc1Oc1cc(C(F)(F)F)nn1C [Compound 126]
65: Plant response rating, Ducksalad [9, 12]
60: Foxtail, Giant plant response rating [6, 13]
80: Plant response rating, Sedge, Umbrella [1, 12] | Plant response rating, Barnyardgrass [3, 19] | Velvetleaf plant response rating [7, 14] | Morningglory plant response rating [8, 14]
10: Wheat plant response rating [4, 13] | Plant response rating, Velvetleaf [7, 15] | Plant response rating, Morningglory [8, 15] | Plant response rating, Rice (rice (Oryza sativa); [11])
30: Plant response rating, Sedge, Umbrella ([1]; Flood, 31 g ai/ha) | Plant response rating, Morningglory [8, 19] | Plant response rating, Barnyardgrass [10, 11] | Corn plant response rating (corn (Zea mays); [14])
75: Plant response rating, Sedge, Umbrella [1, 11]
100: Pigweed plant response rating [2, 13] | Pigweed plant response rating [2, 14] | Plant response rating, Pigweed [2, 15] | Plant response rating, Pigweed [2, 19] | Plant response rating, Crabgrass, Large [5, 15] | Plant response rating, Crabgrass, Large [5, 19]
40: Plant response rating, Sedge, Umbrella ([1]; Flood, 62 g ai/ha) | Velvetleaf plant response rating [7, 13] | Plant response rating, Velvetleaf [7, 19] | Plant response rating, Barnyardgrass [10, 12]
20: Barnyardgrass plant response rating [3, 13] | Wheat plant response rating [4, 14] | Plant response rating, Ducksalad [9, 11] | Plant response rating, Rice (rice (Oryza sativa); [12]) | Corn plant response rating (corn (Zea mays); [13]) | Plant response rating, Corn (corn (Zea mays); [19])
0: Plant response rating, Wheat [4, 15] | Plant response rating, Wheat [4, 19] | Plant response rating, Ducksalad ([9]; Flood, 31 g ai/ha) | Plant response rating, Ducksalad ([9]; Flood, 62 g ai/ha) | Plant response rating, Barnyardgrass ([10]; Flood, 31 g ai/ha) | Plant response rating, Barnyardgrass ([10]; Flood, 62 g ai/ha) | Plant response rating, Rice (rice (Oryza sativa); Flood, 31 g ai/ha) | Plant response rating, Rice (rice (Oryza sativa); Flood, 62 g ai/ha) | Plant response rating, Corn (corn (Zea mays); [15])
70: Barnyardgrass plant response rating [3, 14] | Plant response rating, Barnyardgrass [3, 15] | Plant response rating, Foxtail, Giant [6, 15] | Morningglory plant response rating [8, 13]
90: Crabgrass, Large plant response rating [5, 13] | Crabgrass, Large plant response rating [5, 14] | Foxtail, Giant plant response rating [6, 14] | Plant response rating, Foxtail, Giant [6, 19]

From patent US9302999B2, “Substituted triazoles as herbicides” (E. I. DU PONT DE NEMOURS AND COMPANY, priority 2012, dated 2016)
